Results from PMC10510716.

Key:
[1] = Paal-Knorr-like closure of a side-chain 1,4-diketone (DOP, unmasked from 5-substituted furan in TFA/m-cresol 9:1) with a side-chain alkylhydrazine (Nu1), then air oxidation to a pyridazinium staple; crude redissolved in mQ water, pH adjusted to ~7.5; conditions: the molecule shown is the open-chain precursor, pH ~7.5, 5.0 mM
[2] = Paal-Knorr pyrrole formation between a side-chain 1,4-diketone (DOP1, unmasked from 5-methylfuran in TFA/m-cresol 9:1) and a side-chain hydrazide (Nu2) or aminooxy group (Nu5); crude redissolved in mQ water; conditions: the molecule shown is the open-chain precursor, pH ~2.5, 5.0 mM

With `COc1ccc(C(=O)CCC(=O)CCC(=O)NCCC[C@H](NC(=O)[C@H](Cc2ccc(O)cc2)NC(C)=O)C(=O)N[C@@H](CCCNC(=N)N)C(=O)NCC(=O)N[C@@H](CC(=O)O)C(=O)N[C@@H](CCCNC(=O)CNN)C(=O)N[C@@H](CO)C(=O)N[C@@H](Cc2c[nH]c3ccccc23)C(N)=O)cc1` the ring closure, overall yield ([1]; 29-membered ring) was 13.5%.

With `CC[C@H](C)[C@H](NC(=O)[C@H](CCCNC(=O)CCC(=O)CCC(=O)c1ccc(OC)cc1)NC(=O)[C@H](CCCNC(=N)N)NC(=O)CNC(=O)[C@H](CCCCN)NC(=O)[C@H](CC(C)C)NC(=O)[C@H](Cc1c[nH]cn1)NC(=O)CNC(=O)[C@@H]1CCCN1C(C)=O)C(=O)NCC(=O)N[C@@H](CC(C)C)C(=O)N[C@@H](Cc1c[nH]c2ccccc12)C(=O)N[C@@H](Cc1ccc(O)cc1)C(=O)N[C@@H](C)C(=O)N[C@@H](CCCNC(=O)CNN)C(=O)N[C@@H](CCCCN)C(=O)N[C@@H](CCC(N)=O)C(=O)NCC(=O)N[C@@H](CCC(N)=O)C(=O)N[C@@H](CCCCN)C(=O)N[C@@H](CC(N)=O)C(=O)N[C@@H](CCCCN)C(N)=O` the ring closure, overall yield ([1]; 38-membered ring) was 17.1%.

`CC[C@H](C)[C@H](NC(=O)[C@H](CCC(=O)O)NC(=O)[C@H](CCCNC(=N)N)NC(=O)CNC(=O)[C@H](CCCCN)NC(=O)[C@H](CC(C)C)NC(=O)[C@H](Cc1c[nH]cn1)NC(=O)CNC(=O)[C@@H]1CCCN1C(C)=O)C(=O)NCC(=O)N[C@@H](CC(C)C)C(=O)N[C@@H](Cc1c[nH]c2ccccc12)C(=O)N[C@@H](Cc1ccc(O)cc1)C(=O)N[C@@H](C)C(=O)N[C@@H](CCCNC(=O)CCC(=O)NN)C(=O)N[C@@H](CCCCN)C(=O)N[C@@H](CCC(N)=O)C(=O)NCC(=O)N[C@@H](CCCNC(=O)CCC(=O)CCC(C)=O)C(=O)N[C@@H](CCCCN)C(=O)N[C@@H](CC(N)=O)C(=O)N[C@@H](CCCCN)C(N)=O` showed a ring closure, overall yield ([2]; 31-membered ring) of 8.24%.

With `CC[C@H](C)[C@H](NC(=O)[C@H](CCCNC(=O)CNN)NC(=O)c1ccc(NC(C)=O)cc1)C(=O)N[C@@H](C)C(=O)N[C@@H](C)C(=O)N[C@@H](CC(C)C)C(=O)N[C@@H](CCCCN)C(=O)N[C@@H](CCC(=O)O)C(=O)N[C@@H](CCCCN)C(=O)N[C@H](C(=O)N[C@@H](CCCNC(=O)CNN)C(=O)N[C@@H](C)C(=O)N[C@@H](CC(C)C)C(=O)N[C@@H](CCCCN)C(=O)N[C@@H](CCC(=O)O)C(=O)N[C@@H](CCCCN)C(=O)N[C@H](C(=O)N[C@@H](CCCNC(=O)CCC(=O)CCC(C)=O)C(=O)N[C@@H](C)C(=O)N[C@@H](CC(C)C)C(=O)N[C@@H](CCCCN)C(=O)N[C@@H](CCC(=O)O)C(N)=O)[C@@H](C)CC)[C@@H](C)CC` the ring closure, overall yield ([1]; 38-membered ring) was 6.9%.

For `CC(=O)CCC(=O)CCC(=O)NCCC[C@H](NC(C)=O)C(=O)N[C@@H](Cc1c[nH]c2ccccc12)C(=O)N[C@@H](CCCNC(=N)N)C(=O)NCC(=O)N[C@@H](CC(=O)O)C(=O)N[C@@H](Cc1ccc(O)cc1)C(=O)N[C@@H](CO)C(=O)N[C@@H](CCCNC(=O)CCC(=O)NN)C(N)=O`, the ring closure, overall yield ([2]; 40-membered ring) was 4.3%.

`COc1ccc(C(=O)CCC(=O)CCC(=O)NCCC[C@H](NC(C)=O)C(=O)N[C@@H](Cc2c[nH]c3ccccc23)C(=O)N[C@@H](CCCNC(=N)N)C(=O)NCC(=O)N[C@@H](CC(=O)O)C(=O)N[C@@H](Cc2ccc(O)cc2)C(=O)N[C@@H](CO)C(=O)N[C@@H](CCCNC(=O)CNN)C(N)=O)cc1` gave a ring closure, overall yield ([1]; 38-membered ring) of 13.9%.

For `CC[C@H](C)[C@H](NC(=O)[C@H](CCCNC(=O)CNN)NC(=O)c1ccc(NC(C)=O)cc1)C(=O)N[C@@H](C)C(=O)N[C@@H](C)C(=O)N[C@@H](CC(C)C)C(=O)N[C@@H](CCCCN)C(=O)N[C@@H](CCC(=O)O)C(=O)N[C@@H](CCCCN)C(=O)N[C@H](C(=O)N[C@@H](CCCNC(=O)CNN)C(=O)N[C@@H](C)C(=O)N[C@@H](CC(C)C)C(=O)N[C@@H](CCCCN)C(=O)N[C@@H](CCCNC(=O)CCC(=O)CCC(C)=O)C(=O)N[C@@H](CCCCN)C(=O)N[C@H](C(=O)N[C@@H](C)C(=O)N[C@@H](C)C(=O)N[C@@H](CC(C)C)C(=O)N[C@@H](CCCCN)C(=O)N[C@@H](CCC(=O)O)C(N)=O)[C@@H](C)CC)[C@@H](C)CC`, the ring closure, overall yield ([1]; 29-membered ring) was 6.2%.

Work on `CC[C@H](C)[C@H](NC(=O)[C@H](CCCNC(=O)CCC(=O)CCC(C)=O)NC(=O)[C@H](CCCNC(=N)N)NC(=O)CNC(=O)[C@H](CCCCN)NC(=O)[C@H](CC(C)C)NC(=O)[C@H](Cc1c[nH]cn1)NC(=O)CNC(=O)[C@@H]1CCCN1C(C)=O)C(=O)NCC(=O)N[C@@H](CC(C)C)C(=O)N[C@@H](Cc1c[nH]c2ccccc12)C(=O)N[C@@H](Cc1ccc(O)cc1)C(=O)N[C@@H](C)C(=O)N[C@@H](CCCNC(=O)CCC(=O)NN)C(=O)N[C@@H](CCCCN)C(=O)N[C@@H](CCC(N)=O)C(=O)NCC(=O)N[C@@H](CCC(N)=O)C(=O)N[C@@H](CCCCN)C(=O)N[C@@H](CC(N)=O)C(=O)N[C@@H](CCCCN)C(N)=O` yielded a ring closure, overall yield ([2]; 40-membered ring) of 12.6%.

`CC[C@H](C)[C@H](NC(=O)[C@H](CCCNC(=O)CCC(=O)CCC(C)=O)NC(=O)[C@H](CCCNC(=N)N)NC(=O)CNC(=O)[C@H](CCCCN)NC(=O)[C@H](CC(C)C)NC(=O)[C@H](Cc1c[nH]cn1)NC(=O)CNC(=O)[C@@H]1CCCN1C(C)=O)C(=O)NCC(=O)N[C@@H](CC(C)C)C(=O)N[C@@H](Cc1c[nH]c2ccccc12)C(=O)N[C@@H](Cc1ccc(O)cc1)C(=O)N[C@@H](C)C(=O)N[C@@H](CCCNC(=O)CON)C(=O)N[C@@H](CCCCN)C(=O)N[C@@H](CCC(N)=O)C(=O)NCC(=O)N[C@@H](CCC(N)=O)C(=O)N[C@@H](CCCCN)C(=O)N[C@@H](CC(N)=O)C(=O)N[C@@H](CCCCN)C(N)=O` gave a ring closure, overall yield ([2]; 38-membered ring) of 13.9%.

`CC(=O)CCC(=O)CCC(=O)NCCC[C@H](NC(=O)[C@H](Cc1ccc(O)cc1)NC(C)=O)C(=O)N[C@@H](CCCNC(=N)N)C(=O)NCC(=O)N[C@@H](CC(=O)O)C(=O)N[C@@H](CCCNC(=O)CCC(=O)NN)C(=O)N[C@@H](CO)C(=O)N[C@@H](Cc1c[nH]c2ccccc12)C(N)=O` gave a ring closure, overall yield ([2]; 31-membered ring) of 2.3%.

`CC(=O)CCC(=O)CCC(=O)NCCC[C@H](NC(=O)[C@H](Cc1ccc(O)cc1)NC(C)=O)C(=O)N[C@@H](CCCNC(=N)N)C(=O)NCC(=O)N[C@@H](CC(=O)O)C(=O)N[C@@H](CCCNC(=O)CNN)C(=O)N[C@@H](CO)C(=O)N[C@@H](Cc1c[nH]c2ccccc12)C(N)=O` [Ac-Y-Orn(4,7-dioxooctanoyl)*-R-G-D-Orn(COCH2NHNH2)*-S-W-NH2] showed a ring closure, overall yield ([1]; 29-membered ring) of 16.8%.

In the case of `CC[C@H](C)[C@H](NC(=O)[C@H](CCC(=O)O)NC(=O)[C@H](CCCNC(=N)N)NC(=O)CNC(=O)[C@H](CCCCN)NC(=O)[C@H](CC(C)C)NC(=O)[C@H](Cc1c[nH]cn1)NC(=O)CNC(=O)[C@@H]1CCCN1C(C)=O)C(=O)NCC(=O)N[C@@H](CC(C)C)C(=O)N[C@@H](Cc1c[nH]c2ccccc12)C(=O)N[C@@H](Cc1ccc(O)cc1)C(=O)N[C@@H](C)C(=O)N[C@@H](CCCNC(=O)CNN)C(=O)N[C@@H](CCCCN)C(=O)N[C@@H](CCC(N)=O)C(=O)NCC(=O)N[C@@H](CCCNC(=O)CCC(=O)CCC(C)=O)C(=O)N[C@@H](CCCCN)C(=O)N[C@@H](CC(N)=O)C(=O)N[C@@H](CCCCN)C(N)=O`, the ring closure, overall yield ([1]; 29-membered ring) is reported as 18.2%.

In the case of `CC(=O)CCC(=O)CCC(=O)NCCC[C@H](NC(C)=O)C(=O)N[C@@H](Cc1c[nH]c2ccccc12)C(=O)N[C@@H](CCCNC(=N)N)C(=O)NCC(=O)N[C@@H](CC(=O)O)C(=O)N[C@@H](Cc1ccc(O)cc1)C(=O)N[C@@H](CO)C(=O)N[C@@H](CCCNC(=O)CON)C(N)=O` [Ac-Orn(4,7-dioxooctanoyl)*-W-R-G-D-Y-S-Orn(COCH2ONH2)*-NH2], the ring closure, overall yield ([2]; 38-membered ring) is reported as 5.2%.

In the case of `CC[C@H](C)[C@H](NC(=O)[C@H](CCC(=O)O)NC(=O)[C@H](CCCNC(=N)N)NC(=O)CNC(=O)[C@H](CCCCN)NC(=O)[C@H](CC(C)C)NC(=O)[C@H](Cc1c[nH]cn1)NC(=O)CNC(=O)[C@@H]1CCCN1C(C)=O)C(=O)NCC(=O)N[C@@H](CC(C)C)C(=O)N[C@@H](Cc1c[nH]c2ccccc12)C(=O)N[C@@H](Cc1ccc(O)cc1)C(=O)N[C@@H](C)C(=O)N[C@@H](CCCNC(=O)CNN)C(=O)N[C@@H](CCCCN)C(=O)N[C@@H](CCC(N)=O)C(=O)NCC(=O)N[C@@H](CCCNC(=O)CCC(=O)CCC(=O)c1ccc(OC)cc1)C(=O)N[C@@H](CCCCN)C(=O)N[C@@H](CC(N)=O)C(=O)N[C@@H](CCCCN)C(N)=O`, the ring closure, overall yield ([1]; 29-membered ring) is reported as 10.9%.

Work on `CC[C@H](C)[C@H](NC(=O)[C@H](CCCNC(=O)CCC(=O)CCC(C)=O)NC(=O)[C@H](CCCNC(=N)N)NC(=O)CNC(=O)[C@H](CCCCN)NC(=O)[C@H](CC(C)C)NC(=O)[C@H](Cc1c[nH]cn1)NC(=O)CNC(=O)[C@@H]1CCCN1C(C)=O)C(=O)NCC(=O)N[C@@H](CC(C)C)C(=O)N[C@@H](Cc1c[nH]c2ccccc12)C(=O)N[C@@H](Cc1ccc(O)cc1)C(=O)N[C@@H](C)C(=O)N[C@@H](CCCNC(=O)CNN)C(=O)N[C@@H](CCCCN)C(=O)N[C@@H](CCC(N)=O)C(=O)NCC(=O)N[C@@H](CCC(N)=O)C(=O)N[C@@H](CCCCN)C(=O)N[C@@H](CC(N)=O)C(=O)N[C@@H](CCCCN)C(N)=O` yielded a ring closure, overall yield ([1]; 38-membered ring) of 16.8%.

Work on `CC[C@H](C)[C@H](NC(=O)[C@H](CCC(=O)O)NC(=O)[C@H](CCCNC(=N)N)NC(=O)CNC(=O)[C@H](CCCCN)NC(=O)[C@H](CC(C)C)NC(=O)[C@H](Cc1c[nH]cn1)NC(=O)CNC(=O)[C@@H]1CCCN1C(C)=O)C(=O)NCC(=O)N[C@@H](CC(C)C)C(=O)N[C@@H](Cc1c[nH]c2ccccc12)C(=O)N[C@@H](Cc1ccc(O)cc1)C(=O)N[C@@H](C)C(=O)N[C@@H](CCCNC(=O)CON)C(=O)N[C@@H](CCCCN)C(=O)N[C@@H](CCC(N)=O)C(=O)NCC(=O)N[C@@H](CCCNC(=O)CCC(=O)CCC(C)=O)C(=O)N[C@@H](CCCCN)C(=O)N[C@@H](CC(N)=O)C(=O)N[C@@H](CCCCN)C(N)=O` yielded a ring closure, overall yield ([2]; 29-membered ring) of 3.48%.

Compound `CC(=O)CCC(=O)CCC(=O)NCCC[C@H](NC(C)=O)C(=O)N[C@@H](Cc1c[nH]c2ccccc12)C(=O)N[C@@H](CCCNC(=N)N)C(=O)NCC(=O)N[C@@H](CC(=O)O)C(=O)N[C@@H](Cc1ccc(O)cc1)C(=O)N[C@@H](CO)C(=O)N[C@@H](CCCNC(=O)CNN)C(N)=O` [Ac-Orn(4,7-dioxooctanoyl)*-W-R-G-D-Y-S-Orn(COCH2NHNH2)*-NH2] has a ring closure, overall yield ([1]; 38-membered ring) of 16.7%.
